According to patent US20210386069A1 (priority 2018, published 2021):

Test: log P by HPLC on a reversed-phase column (C 18), EEC Directive 79/831 Annex V.A8
Assay type: physicochemical
Settings: HPLC reversed-phase C 18, 40° C., 0.1% aqueous formic acid and acetonitrile, linear gradient 10% to 95% acetonitrile
Method: In table 1, the log P values were determined in accordance with EEC Directive 79/831 Annex V.A8 by HPLC (High Performance Liquid Chromatography) on a reversed-phase column (C 18), using the method described below:
temperature: 40° C.; mobile phases: 0.1% aqueous formic acid and acetonitrile; linear gradient from 10% acetonitrile to 95% acetonitrile;
If more than one Log P value is available within the same method, all the values are given and separated by “;”.
Calibration was carried out using unbranched alkan-2-ones (comprising 3 to 16 carbon atoms) with known log P values (determination of the log P values by the retention times using linear interpolation between two successive alkanones). lambda-max-values were determined using UV-spectra from 200 nm to 400 nm and the peak values of the chromatographic signals.

Point of comparison: `Cc1nc2c(F)c(F)ccc2cc1Nc1cccc(F)c1-c1cc(Cl)cnc1F` [I.128], logP 4.05. Against it:
- Cc1nc2c(F)c(F)ccc2cc1Nc1cccc(F)c1-c1ccnc(Cl)c1 [I.091] — lower, 3.69
- Cc1nc2c(F)c(F)ccc2cc1Nc1cccc(F)c1-c1ccc(Cl)nc1 [I.092] — lower, 3.72
- Cc1nc2c(F)c(F)ccc2cc1Nc1cccc(F)c1-c1ccncc1Cl [I.093] — lower, 3.46
- Cc1nc2c(F)c(F)ccc2cc1Nc1cccc(F)c1-c1cccnc1Cl [I.094] — lower, 3.50
- Cc1nc2c(F)c(F)ccc2cc1Nc1ccccc1-c1cc(Cl)cnc1F [I.095] — within 0.2 log units, 4.01
- Cc1nc2c(F)c(F)ccc2cc1Nc1ccccc1-c1ccnc(F)c1Cl [I.096] — within 0.2 log units, 3.91
- Cc1nc2c(F)c(F)ccc2cc1Nc1ccccc1-c1cc(F)cnc1Cl [I.097] — lower, 3.81
- Cc1nc2c(F)c(F)ccc2cc1Nc1ccccc1-c1cc(Cl)ncc1F [I.098] — within 0.2 log units, 3.91
- Cc1nc2c(F)c(F)ccc2cc1Nc1cccc(F)c1-c1cncc(Cl)c1 [I.099] — lower, 3.60
- Cc1nc2c(F)c(F)ccc2cc1Nc1cccc(F)c1-c1cc(F)nc(F)c1 [I.100] — within 0.2 log units, 3.98
- Cc1nc2c(F)c(F)ccc2cc1Nc1cccc(F)c1-c1ccnc(F)c1F [I.101] — lower, 3.81
- Cc1nc2c(F)c(F)ccc2cc1Nc1cccc(F)c1-c1ccc(F)nc1F [I.103] — lower, 3.84
- Cc1nc2c(F)c(F)ccc2cc1Nc1cccc(F)c1-c1cccnc1C1CC1 [I.105] — lower, 3.25
- Cc1nc2c(F)c(F)ccc2cc1Nc1cccc(F)c1-c1ccncc1C1CC1 [I.106] — lower, 2.49
- Cc1nc2c(F)c(F)ccc2cc1Nc1ccccc1-c1ccc(OC(C)C)nc1 [I.107] — higher, 4.43
- COc1ccc(-c2ccccc2Nc2cc3ccc(F)c(F)c3nc2C)c(OC)n1 [I.108] — higher, 4.62
- CCCc1ncccc1-c1c(F)cccc1Nc1cc2ccc(F)c(F)c2nc1C [I.109] — lower, 2.62
- CCCc1cnccc1-c1c(F)cccc1Nc1cc2ccc(F)c(F)c2nc1C [I.110] — lower, 2.89
- CCCc1ccncc1-c1c(F)cccc1Nc1cc2ccc(F)c(F)c2nc1C [I.111] — lower, 2.75
- CCOc1ccc(-c2c(F)cccc2Nc2cc3ccc(F)c(F)c3nc2C)cn1 [I.112] — within 0.2 log units, 4.09
- CCOc1ncccc1-c1c(F)cccc1Nc1cc2ccc(F)c(F)c2nc1C [I.113] — within 0.2 log units, 4.13
- CSc1ccc(-c2c(F)cccc2Nc2cc3ccc(F)c(F)c3nc2C)cn1 [I.114] — within 0.2 log units, 3.91
- CSc1ncccc1-c1c(F)cccc1Nc1cc2ccc(F)c(F)c2nc1C [I.115] — within 0.2 log units, 3.98
- COc1nccc(-c2ccccc2Nc2cc3ccc(F)c(F)c3nc2C)c1Cl [I.116] — within 0.2 log units, 4.09
- COc1c(-c2c(F)cccc2Nc2cc3ccc(F)c(F)c3nc2C)ccnc1F [I.117] — lower, 3.75
- Cc1cnc(Cl)c(-c2c(F)cccc2Nc2cc3ccc(F)c(F)c3nc2C)c1 [I.118] — lower, 3.75
- Cc1cc(-c2c(F)cccc2Nc2cc3ccc(F)c(F)c3nc2C)cnc1Cl [I.119] — within 0.2 log units, 3.98
- Cc1nc2c(F)c(F)ccc2cc1Nc1cccc(F)c1-c1ccc(Cl)nc1C [I.120] — within 0.2 log units, 4.01
- Cc1cc(Cl)ncc1-c1c(F)cccc1Nc1cc2ccc(F)c(F)c2nc1C [I.121] — within 0.2 log units, 4.01
- Cc1nc2c(F)c(F)ccc2cc1Nc1ccccc1-c1cncc(C(F)(F)F)c1 [I.122] — lower, 3.65
- Cc1nc2c(F)c(F)ccc2cc1Nc1ccccc1-c1ccc(C(F)(F)F)nc1 [I.123] — within 0.2 log units, 3.91
- Cc1nc2c(F)c(F)ccc2cc1Nc1ccccc1-c1cc(Cl)cnc1Cl [I.124] — within 0.2 log units, 4.13
- Cc1nc2c(F)c(F)ccc2cc1Nc1cccc(F)c1-c1cc(Cl)ncc1F [I.126] — within 0.2 log units, 3.98
- Cc1nc2c(F)c(F)ccc2cc1Nc1cccc(F)c1-c1cc(F)cnc1Cl [I.127] — within 0.2 log units, 3.87
- Cc1nc2c(F)c(F)ccc2cc1Nc1cccc(F)c1-c1ccnc(F)c1Cl [I.129] — within 0.2 log units, 3.98
- Cc1nc2c(F)c(F)ccc2cc1Nc1cccc(F)c1-c1ccc(OC(C)C)nc1 [I.130] — higher, 4.47
- COc1ccc(-c2c(F)cccc2Nc2cc3ccc(F)c(F)c3nc2C)c(OC)n1 [I.131] — higher, 4.43
- COc1nccc(-c2c(F)cccc2Nc2cc3ccc(F)c(F)c3nc2C)c1Cl [I.132] — within 0.2 log units, 4.09
- Cc1nc2c(F)c(F)ccc2cc1Nc1cccc(F)c1-c1cncc(C(F)(F)F)c1 [I.133] — lower, 3.75
- Cc1nc2c(F)c(F)ccc2cc1Nc1cccc(F)c1-c1ccc(C(F)(F)F)nc1 [I.134] — within 0.2 log units, 3.94
- COc1cc(-c2ccccc2Nc2cc3ccc(F)c(F)c3nc2C)c(Br)cn1 [I.135] — higher, 4.36
- Cc1nc2c(F)c(F)ccc2cc1Nc1cccc(F)c1-c1cc(F)cnc1F [I.136] — lower, 3.71
- Cc1nc2c(F)c(F)ccc2cc1Cc1cccnc1-c1ccnc(F)c1 [I.137] — lower, 2.52
- Fc1cc(-c2cscc2Cc2cnc3c(F)cccc3c2)ccn1 [I.139] — lower, 3.11

Same assay, conditions: reversed-phase HPLC column (C 18); preparation examples; log P as defined in table 1 (HPLC, 0.1% aqueous formic acid/acetonitrile)

Point of comparison: `Cc1nc2c(F)c(F)ccc2cc1Nc1cccc(F)c1Br` [N-(2-bromo-3-fluorophenyl)-7,8-difluoro-2-methylquinolin-3-amine], chromatographic logP 3.28. Against it:
- Cc1nc2c(F)c(F)ccc2cc1Nc1cccc(F)c1-c1cnccc1C1CC1 [I.104, N-[2-(4-cyclopropylpyridin-3-yl)-3-fluorophenyl]-7,8-difluoro-2-methylquinolin-3-amine] — lower, 2.12
- Cc1nc2c(F)c(F)ccc2cc1Cc1cscc1-c1ccnc(F)c1 [I.138, 7,8-difluoro-3-{[4-(2-fluoropyridin-4-yl)-3-thienyl]methyl}-2-methylquinoline] — higher, 3.64
